The source of these data is patent US11672775B2, “Treprostinil prodrugs” (United Therapeutics Corporation, priority 2016, dated 2023).

By EC50 is commonly meant the midpoint of the concentration-response curve. The term solubility denotes the concentration that dissolves in the medium under given conditions.

Series [1] concerns the target T1, IP1 receptor (Homo sapiens, UniProt P43119).
T1 construct: expressed in transfected cells
Put plainly: cAMP assay (TR-FRET or HTRF kit, forskolin), Examples 5 and 6. The settings on record: read-out: EC50, IP receptor. The series is classed as cell-based. Here is the method: (§1) [table] Prodrug XV (for structure see FIG. 10) as well as treprostinil were tested for 3 G-protein-coupled receptors (GPCRs), namely DP1, EP2, and IP, using cyclic adenosine monophosphate (cAMP) assay. Cyclic AMP assay kits: Multiscreen™ TR-FRET cAMP 1.0 No Wash Assay Kit (Multispan, Inc., Cat #MSCM01-25) and HTRF cAMP HiRange Kit (CisBio, Cat #62AM6PEC). Instruments: FlexStation III (Molecular Devices). Cyclic AMP (cAMP) Assay: cAMP assays were performed according to the manufacturer's protocol using Multiscreen™ TR-FRET cAMP 1.0 No Wash Assay Kit or HTRF cAMP HiRange Kit. […] The reaction was terminated by sequentially adding sequentially adding trFluor™ Eu-labeled cAMP and trFluor™ 650-labeled anti-cAMP antibody or D2-labeled cAMP and cryptate-labeled anti-cAMP antibody in lysis buffer. The plate was then incubated at room temperature for 60 minutes before reading fluorescent emissions at 620 nm and 665 or 668 nm with excitation at 314 nm on FlexStation III (Molecular Devices). Cyclic AMP (cAMP) assays: Cyclic AMP assay results are shown as “Ratio 665/620×10,000” (ratio of fluorescence at 665 nm and 620 nm×10,000) or “Ratio 668/620×10,000” (ratio of fluorescence at 668 nm and 620 nm×10,000). Data in graphs were represented in Mean±SD. Dose-dependent responses were fitted with sigmoidal dose-response curves allowing variable slopes using GraphPad Prism versions 4, 5 or 6 (Graphpad Prism). Treprostinil Prodrug XIV (for structure see FIG. 10) as well as treprostinil were tested for 3 G-protein-coupled receptors (GPCRs), namely DP1, EP2, and IP, using cyclin adenosine monophosphate (cAMP) assay. Cyclic AMP assay kits: Multiscreen™ TR-FRET cAMP 1.0 No Wash Assay Kit (Multispan, Inc., Cat #MSCM01-25) and HTRF cAMP HiRange Kit (CisBio, Cat #62AM6PEC). Cyclic AMP (cAMP) Assay: cAMP assays were performed according to the manufacturer's protocol using Multiscreen™ TR-FRET cAMP 1.0 No Wash Assay Kit or HTRF cAMP HiRange Kit. […] The reaction was terminated by sequentially adding sequentially adding trFluor™ Eu-labeled cAMP and trFluor™ 650-labeled anti-cAMP antibody or D2-labeled cAMP and cryptate-labeled anti-cAMP antibody in lysis buffer. The plate was then incubated at room temperature for 60 minutes before reading fluorescent emissions at 620 nm and 665 or 668 nm with excitation at 314 nm on FlexStation III (Molecular Devices). Cyclic AMP (cAMP) assays: Cyclic AMP assay results are shown as “Ratio 665/620×10,000” (ratio of fluorescence at 665 nm and 620 nm×10,000) or “Ratio 668/620×10,000” (ratio of fluorescence at 668 nm and 620 nm×10,000). Data in graphs were represented in Mean±SD. Dose-dependent responses were fitted with sigmoidal dose-response curves allowing variable slopes using GraphPad Prism versions 4, 5 or 6 (Graphpad Prism).
In general terms: Changes in cAMP serve as a functional read-out for many G protein-coupled receptors.

In series [2] the target is T2, DP1 receptor (Homo sapiens, UniProt Q13258).
T2 construct: expressed in transfected cells
T2 sequence (Q13258 1-359): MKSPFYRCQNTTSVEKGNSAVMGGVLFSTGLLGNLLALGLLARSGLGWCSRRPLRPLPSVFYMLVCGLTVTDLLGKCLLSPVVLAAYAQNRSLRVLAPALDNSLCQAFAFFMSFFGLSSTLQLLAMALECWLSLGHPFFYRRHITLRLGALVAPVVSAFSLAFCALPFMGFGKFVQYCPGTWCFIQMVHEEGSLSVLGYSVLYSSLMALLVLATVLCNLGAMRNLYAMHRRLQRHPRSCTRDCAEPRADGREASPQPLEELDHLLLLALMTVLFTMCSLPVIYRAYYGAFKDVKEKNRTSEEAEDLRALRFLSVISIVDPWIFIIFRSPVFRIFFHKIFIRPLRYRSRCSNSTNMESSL
The description is as above. The series is classed as cell-based. As to conditions: read-out: EC50, DP receptor. The procedure: as §1

Series [3] addresses T3, EP2 receptor (Homo sapiens, UniProt P43116).
T3 construct: expressed in transfected cells
The description is as above. The series is classed as cell-based. The settings on record: read-out: EC50, EP receptor. The procedure:
as §1

The subject of series [4] is Sprague Dawley rats. Put plainly: Rat intraplantar injection model, von Frey test (Example 10). The series is classed as in vivo, Sprague Dawley rat. The settings on record: 1 μg/mL or 100 μg/mL; 15 and 90 minutes post-injection. Here is the method:
(§2) Male Sprague Dawley rats (n=56) were allocated into 7 groups of 8 animals per group. […] Each group was compared to the phosphate buffer (50-mM phosphate buffer with 50-mM sodium chloride at pH=7.4) treated group, which served as the control (Group 1).
(§3) Animals were administered 0.1 mL of test material by subcutaneous injection into the paw pad (Intraplantar injection) at time zero. Then, the animals were subsequently evaluated for their response to mechanical (von Frey filaments) and thermal stimuli, 15 and 90 minutes post-injection. The von Frey test was conducted prior to the thermal test, which followed immediately within minutes for each animal. In addition, clinical observation scoring of the animal's reaction to injection was conducted.
Mechanical pain sensitivity was tested using the von Frey test, which measures the withdrawal force threshold of the animals. The lower the force applied represents a greater sensitivity to the stimulus. The von Frey test was performed 15 and 90 minutes post-test item injection.

Series [5] deals with Sprague Dawley rats. Put plainly: Rat intraplantar injection model, thermal pain sensitivity (Example 10). The settings on record: 1 μg/mL or 100 μg/mL; 15 minutes post-administration. The series is classed as in vivo, Sprague Dawley rat. Here is the method: as §2, §3
The sensitivity of animals to a thermal pain stimulus was assessed immediately following the von Frey test. The time until withdrawal of the right-injected leg from a heat source was measured, and the lower (faster) the time of response represents a greater sensitivity to the stimulus. The test was performed 15 and 90 minutes post-test item injection.

Series [6] can be described thus: Stability in 200 mM potassium phosphate buffer (pH 7.4). The settings on record: 1 μM. The series is classed as physicochemical. The procedure:
According to the earlier aqueous solution stability study, all prodrugs are stable in 20 mM Sodium Phosphate dibasic with 125 mM NaCl at saturation concentrations (3-30 mg/ml). Also, in the method development work, it was also observed that the most unstable prodrugs III, IV and XIV were stable in 200 mM potassium phosphate buffer (pH 7.4) at a low concentration of 1 μM.

Series [7] can be described thus: Solution stability in vehicle (UPLC area %). The series is classed as physicochemical. As to conditions: for Solution stability, T0 Purity: ambient. The procedure: (§4) Each prodrug was dissolved in a vehicle containing 20 mM sodium phosphate dibasic with 125 mM sodium chloride. Prodrugs were prepared at saturation concentrations by weighing 15-30 mg of prodrug in to a 4 mL clear glass vial and dissolving in an appropriate volume of vehicle (0.5-1.0 mL) to achieve a nominal saturation concentration of 30 mg/mL. The solutions were mixed for 23 hours on a rotating mixer. […] The resultant supernatant solutions were isolated from undissolved prodrug by centrifugation at 15000 RPM for 15 min. Supernatants were transferred to clear glass vials and stored at ambient temperature. […] The resultant samples were assayed against treprostinil to determine prodrug concentration. At each testing interval (0, 24, 72 hours) the supernatant was assayed for prodrug concentration and purity by area %.

Series [8] is described as follows: Equilibrium solubility in vehicle. The settings on record: aqueous buffer, thermodynamic from solid, 20 mM sodium phosphate dibasic with 125 mM sodium chloride; for solubility thermodynamic at 23 h: T0 hours, read-out: Equilibrium solubility, T0 hours Concentration; for solubility thermodynamic at 24 h: T24 hours, read-out: Equilibrium solubility, T24 hours Concentration; for solubility thermodynamic at 72 h: T72 hours, read-out: Equilibrium solubility, T72 hours Concentration. The series is classed as physicochemical. The procedure: as §4

The nature of series [9]: In vitro metabolic stability of prodrugs in liver microsomes, across all species. The series is classed as in vitro ADME, human, Beagle dog, Sprague Dawley rat, Cynomolgus monkey. The procedure: In the second assay, four prodrugs (III, IV, VII and XIV) were tested in Cyno monkey liver microsomes.
On the technique in general: Liver microsomes are a subcellular fraction often used to study metabolism.

Setting [10] is: 20 mM sodium phosphate dibasic with 125 mM sodium chloride, T0.

In brackets after ≈: the same amount, converted by molar mass. Like-named read-outs stand apart in the source and are kept apart here.

T1 sequence (P43119 whole entry): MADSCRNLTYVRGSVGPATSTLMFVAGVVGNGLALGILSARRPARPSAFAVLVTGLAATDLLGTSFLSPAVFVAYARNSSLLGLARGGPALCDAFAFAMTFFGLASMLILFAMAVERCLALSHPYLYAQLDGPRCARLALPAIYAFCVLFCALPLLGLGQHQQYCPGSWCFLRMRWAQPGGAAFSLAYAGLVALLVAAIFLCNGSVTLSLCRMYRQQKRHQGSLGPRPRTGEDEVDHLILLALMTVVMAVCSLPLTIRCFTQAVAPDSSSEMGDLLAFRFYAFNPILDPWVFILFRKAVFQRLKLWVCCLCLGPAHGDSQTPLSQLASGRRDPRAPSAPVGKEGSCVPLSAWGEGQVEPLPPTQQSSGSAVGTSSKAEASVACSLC
T3 sequence (P43116 whole entry): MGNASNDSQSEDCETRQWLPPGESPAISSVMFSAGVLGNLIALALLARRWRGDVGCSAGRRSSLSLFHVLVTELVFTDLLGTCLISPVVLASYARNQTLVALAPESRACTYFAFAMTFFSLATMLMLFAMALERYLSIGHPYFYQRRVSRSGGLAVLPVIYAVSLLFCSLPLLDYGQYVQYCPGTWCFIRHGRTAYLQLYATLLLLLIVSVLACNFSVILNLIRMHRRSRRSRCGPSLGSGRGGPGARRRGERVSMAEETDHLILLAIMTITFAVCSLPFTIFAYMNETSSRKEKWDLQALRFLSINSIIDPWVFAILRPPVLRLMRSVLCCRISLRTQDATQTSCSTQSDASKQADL

Regarding `CCCCC[C@H](O)CC[C@@H]1[C@H]2Cc3cccc(OCC(=O)OCC(=O)O)c3C[C@H]2C[C@H]1O` [Prodrug XV], the EC50 in series [1] (Table 3 (Example 5)) turned out to be 4.28 nM; in series [2] (Table 3 (Example 5)), 6.99 nM; in [3] (Table 3 (Example 5)) it was 41.5 nM. Further, the “von Frey withdrawal force threshold vs phosphate buffer group” value in series [4] is recorded as “reduced withdrawal force threshold”. Also, in [5], the “thermal paw withdrawal time vs phosphate buffer treated group” value is reported as “statistically significantly faster paw withdrawal time”.
Take `CCCCC[C@H](O)CC[C@@H]1[C@H]2Cc3cccc(OCC(=O)NS(C)(=O)=O)c3C[C@H]2C[C@H]1O` [Prodrug XIV, treprostinil methanesulfonamide]: the stability in buffer result in series [6] was “stable”. Moreover, the EC50 in [1] (Table 4 (Example 6)) came to 3.33 nM. Besides, the EC50 in series [2] (Table 4 (Example 6)) is 38.8 nM. The concentration giving a half-maximal response (EC50) in [3] (Table 4 (Example 6)) is 67 nM. For the same compound, in [7] (setting [10]), the “T0 Residual Treprostinil” value was 0.08 % Area and the “Solution stability, T0 Purity” value is on record as 94.20 % Area. Also, in series [7] (formed over 72 hours), the “treprostinil formation in the vehicle” value came to 0.15%. For the same compound, the “T24 Residual Treprostinil” value in series [7] (same vehicle, T24) is reported as 0.13 % Area. Moreover, in series [7] (same vehicle, T72), the “T72 Residual Treprostinil” value came out at 0.23 % Area. Moreover, in series [7] (same vehicle), the “Solution stability, T24 hours Purity” value is 94.25 % Area and the “Solution stability, T72 hours Purity” value was determined as 94.56 % Area. For the same compound, in series [8], the solubility thermodynamic at 23 h came out at 29.5 mg/mL (≈ 63.1 mM), the solubility thermodynamic at 24 h was determined as 27.5 mg/mL (≈ 58.8 mM) and the solubility thermodynamic at 72 h stood at 26.6 mg/mL (≈ 56.9 mM). Further, the solubility at 23 h in series [8] (approximate, read-out: Solubility in the selected vehicle) was ~30 mg/mL (≈ 64.2 mM). For the same compound, the “relative stability of the prodrugs in liver microsomes” value in series [9] is listed as “least stable”.
Regarding `CCCCC[C@@H](CC[C@@H]1[C@H]2Cc3cccc(OCC(=O)O)c3C[C@H]2C[C@H]1O)OC(=O)OC` [Prodrug IV, side chain methyl carbonate of treprostinil], the stability in buffer entry in [6] was “stable”. Moreover, the “Solution stability, T0 Purity” value in series [7] (setting [10]) turned out to be 99.19 % Area. In series [7] (same vehicle), the “Solution stability, T24 hours Purity” value is given as 99.02 % Area and the “Solution stability, T72 hours Purity” value came to 99.15 % Area. In series [8], the solubility thermodynamic at 23 h is 12.5 mg/mL (≈ 27.9 mM), the solubility thermodynamic at 24 h came out at 12.2 mg/mL (≈ 27.2 mM) and the solubility thermodynamic at 72 h was 12.9 mg/mL (≈ 28.8 mM). Also, the “relative stability of the prodrugs in liver microsomes” value in series [9] is listed as “least stable”.
